Assays:
HBV = assay: HepAD38 antiviral assay: reduction of viral product accumulation (virion DNA by qPCR; HBsAg/HBeAg ELISA); type: cell-based, hepatitis B virus (HBV); settings: Hepatitis B virus, 120 h; HepAD38 cells; 50% reduction of viral product accumulation relative to no drug controls; harvest five days after compound addition
Procedure: Methods: HepAD38 cells are maintained as previously reported (Ladner et al, Antimicrob. Agents Chemother. 1997, […], 1715). Briefly, cells are passaged upon attaining confluency in DMEM/F12 media in the presence of 10% FBS, Penn/Strep, 250 μg/mL G418, and 1 μg/ml tetracycline. Novel compounds are screened by first washing cells three times with PBS to remove tetracycline, and plating in 96 well plates at 35,000 cells/well. Compounds dissolved in DMSO are then diluted 1:200 into wells containing cells. Five days after compound addition, material is harvested for analysis. For an extended 8 day analysis, cells are plated and treated as described above, but media and compound are refreshed on d2 and d5 post initial treatment.
On harvest day, virion DNA is obtained by lysing with Sidestep Lysis and Stabilization Buffer and then quantified via quantitative real time PCR. Commercially available ELISA kits are used to quantitate the viral proteins HBsAg (Alpco) or HbeAg (US Biological) by following the manufacturer's recommended protocol after diluting samples to match the linear range of their respective assays. Irrespective of readout, compound concentrations that reduce viral product accumulation in the cell lysates or supernatants by 50% relative to no drug controls (EC50) are reported; EC50 ranges are as follows: A<0.1 μM; B 0.1-1 μM; C>1 μM.

[1] = Compound toxicity, ATPLite total ATP levels; type: cell-based; settings: human, HepG2 cells, 50% reduction of total ATP levels (ATPLite) three days after compound addition
Procedure: Compound toxicity is evaluated by seeding cells at 15,000 cells/well and treating with compound as described above.

**Q.** With `CC(C)S(=O)(=O)N[C@H]1CC2=C(c3ccn(C)n3)[C@H](c3ccc(F)cc3Cl)N=C(c3nccs3)N2C1` [Example 8] as the compound, how does the EC50 (HBV) read?
**A.** Its EC50 is under 0.1 µM.

**Q.** Which EC50 (HBV) does the source give for `Cc1coc(C2=C3C[C@H](NS(=O)(=O)C4CC4)CN3C(c3nccs3)=N[C@H]2c2ccc(F)cc2Cl)n1` [Example 21] here?
**A.** Its EC50 is under 0.1 µM.

**Q.** Which EC50 (HBV) does the source give for `Cn1ccc(C2=C3C[C@H](NS(=O)(=O)C4CCCCC4)CN3C(c3nccs3)=N[C@H]2c2ccc(F)cc2Cl)n1` [Example 13] here?
**A.** The EC50 was under 0.1 µM.

**Q.** With `CCn1ccc(C2=C3C[C@H](NS(=O)(=O)C4CC4)CN3C(c3nccs3)=N[C@H]2c2ccc(F)cc2Cl)n1` [Example 22] as the compound, how does the EC50 (HBV) read?
**A.** Its EC50 is under 0.1 µM.

**Q.** What about the CC50 at 3 days ([1]; numeric bound) of the same compound?
**A.** The CC50 at 3 days was over 6 µM.

**Q.** For `Cn1ccc(C2=C3C[C@H](NS(=O)(=O)C4CCC4)CN3C(c3nccs3)=N[C@H]2c2ccc(F)cc2Cl)n1` [Example 11], which EC50 (HBV) is on record?
**A.** Its EC50 is under 0.1 µM.

**Q.** For `Cn1ccc(C2=C3CC(NS(=O)(=O)C4CC4)CN3C(c3nccs3)=N[C@H]2c2ccc(F)cc2Cl)n1` (some centres unmarked) [Example 2], which EC50 (HBV) is on record?
**A.** Its EC50 is under 0.1 µM.

**Q.** And the CC50 at 3 days ([1]; class symbols)?
**A.** The CC50 at 3 days was over 25 µM.

**Q.** For `Cn1ccc(C2=C3C[C@H](NS(=O)(=O)C4(C)CC4)CN3C(c3nccs3)=N[C@H]2c2ccc(F)cc2Cl)n1` [Example 10], which EC50 (HBV) is on record?
**A.** The EC50 was under 0.1 µM.

**Q.** Which EC50 (HBV) does the source give for `Cn1ccc(C2=C3C[C@H](NS(=O)(=O)C4CC4)CN3C(c3nccs3)=N[C@@]2(C)c2ccc(F)cc2)n1` [Example 5] here?
**A.** The EC50 was under 0.1 µM.

**Q.** Which EC50 (HBV) does the source give for `Cc1cnc(C2=C3C[C@H](NS(=O)(=O)C4CC4)CN3C(c3nccs3)=N[C@H]2c2ccc(F)cc2Cl)o1` [Example 18] here?
**A.** Its EC50 is under 0.1 µM.

**Q.** What about the CC50 at 3 days ([1]; class symbols) of the same compound?
**A.** Its CC50 at 3 days is over 25 µM.

**Q.** Which EC50 (HBV) does the source give for `Cn1ccc(C2=C3C[C@H](NS(=O)(=O)c4ccccc4)CN3C(c3nccs3)=N[C@H]2c2ccc(F)cc2Cl)n1` [Example 14] here?
**A.** Its EC50 is under 0.1 µM.

**Q.** With `Cn1ccc(C2=C3C[C@H](NS(=O)(=O)C4CCCC4)CN3C(c3nccs3)=N[C@H]2c2ccc(F)cc2Cl)n1` [Example 12] as the compound, how does the EC50 (HBV) read?
**A.** The EC50 was under 0.1 µM.

**Q.** For `Cn1ccc(C2=C3C[C@H](NS(N)(=O)=O)CN3C(c3nccs3)=N[C@H]2c2ccc(F)cc2Cl)n1` [Example 20], which EC50 (HBV) is on record?
**A.** The EC50 was under 0.1 µM.

**Q.** And the CC50 at 3 days ([1]; class symbols)?
**A.** Its CC50 at 3 days is over 25 µM.

**Q.** For `Cn1ccc(C2=C3C[C@H](NS(=O)(=O)C4CC4)CN3C(c3nccs3)=NC2(C)c2ccc(F)cc2)n1` (some centres unmarked) [Example 4], which EC50 (HBV) is on record?
**A.** Its EC50 is under 0.1 µM.

**Q.** Which EC50 (HBV) does the source give for `Cn1ccc(C2=C3C[C@H](NS(=O)(=O)C4CC4)CN3C(c3nccs3)=N[C@@]2(C)c2ccc(F)c(F)c2)n1` [Example 16] here?
**A.** The EC50 was under 0.1 µM.

**Q.** For `Cn1ccc(C2=C3CC(NC(=O)OC(C)(C)C)CN3C(c3nccs3)=N[C@H]2c2ccc(F)cc2Cl)n1` (some centres unmarked) [Example 1], which EC50 (HBV) is on record?
**A.** The EC50 was under 0.1 µM.

**Q.** What about the CC50 at 3 days ([1]; class symbols) of the same compound?
**A.** The CC50 at 3 days was under 10 µM.

**Q.** Which EC50 (HBV) does the source give for `O=S(=O)(N[C@H]1CC2=C(c3ncco3)[C@H](c3ccc(F)cc3Cl)N=C(c3nccs3)N2C1)C1CC1` [Example 15] here?
**A.** Its EC50 is under 0.1 µM.

**Q.** For `CCS(=O)(=O)N[C@H]1CC2=C(c3ccn(C)n3)[C@H](c3ccc(F)cc3Cl)N=C(c3nccs3)N2C1` [Example 7], which EC50 (HBV) is on record?
**A.** The EC50 was under 0.1 µM.

**Q.** Which EC50 (HBV) does the source give for `O=S(=O)(N[C@H]1CC2=C(c3ccccn3)[C@H](c3ccc(F)cc3Cl)N=C(c3nccs3)N2C1)C1CC1` [Example 23] here?
**A.** The EC50 was 0.1 to 1 µM.

**Q.** With `Cn1ccc(C2=C3C[C@H](NS(=O)(=O)Cc4ccccc4)CN3C(c3nccs3)=N[C@H]2c2ccc(F)cc2Cl)n1` [Example 9] as the compound, how does the EC50 (HBV) read?
**A.** Its EC50 is under 0.1 µM.

**Q.** With `Cn1ccc(C2=C3C[C@H](NS(C)(=O)=O)CN3C(c3nccs3)=N[C@H]2c2ccc(F)cc2Cl)n1` [Example 6] as the compound, how does the EC50 (HBV) read?
**A.** The EC50 was under 0.1 µM.

**Q.** With `Cn1cc(C2=C3C[C@H](NS(=O)(=O)C4CC4)CN3C(c3nccs3)=N[C@H]2c2ccc(F)cc2Cl)cn1` [Example 19] as the compound, how does the EC50 (HBV) read?
**A.** The EC50 was under 0.1 µM.

**Q.** Which results are given for `[2H]C([2H])([2H])n1ccc(C2=C3C[C@H](NS(=O)(=O)C4CC4)CN3C(c3nccs3)=N[C@H]2c2ccc(F)cc2Cl)n1` [Example 17]?
**A.** EC50 (HBV): < 0.1 µM; CC50 at 3 days ([1]; class symbols): > 25 µM

**Q.** Which EC50 (HBV) does the source give for `Cn1ccc(C2=C3C[C@H](NS(=O)(=O)C4CC4)CN3C(c3nccs3)=N[C@H]2c2ccc(F)cc2Cl)n1` [Example 3] here?
**A.** Its EC50 is under 0.1 µM.
